Reference: US20130189764A1, “SELECTIVE GROWTH MEDIA” (Oxide Limited, priority 2000, published 2013)
≈ marks a conversion by molar mass, not a printed value.

How the values were obtained:
Burkholderia cepacia = test: MIC on DMSal agar (Example 15); format: cell-based; details: 1 strain
Acinetobacter baumanii = test: MIC on DMSal agar (Example 15); format: cell-based; details: 1 strain
Experimental: (§1) The experiments were conducted as follows: […], on cooling (but prior to setting) filter-sterilised alaphosphin or AEP were incorporated at final concentrations of 1 mM, 2 mM, 5 mM and 10 mM, and the medium used to pour plates. Control plates were prepared using nutrient agar without alaphosphin or AEP. A single colony of the organism under test was inoculated in 10 ml of nutrient broth and incubated (without agitation) at 37° C. for 4 hours.

Aeromonas hydrophilia = test: MIC on DMSal agar (Example 15); format: cell-based; details: 1 strain
Experimental: as §1

Campylobacter coli = test: MIC on DMSal agar (Example 15); format: cell-based; details: 4 strains
Experimental: as §1

Campylobacter jejuni = test: MIC on DMSal agar (Example 15); format: cell-based; details: 4 strains
Experimental: as §1

Citrobacter freundii = test: MIC on DMSal agar (Example 15); format: cell-based; details: 4 strains
Experimental: as §1

Cronobacter sakazakii = test: MIC on DMSal agar (Example 15); format: cell-based; details: 1 strain
Experimental: as §1

Enterobacter aerogenes = test: MIC on DMSal agar (Example 15); format: cell-based; details: 1 strain
Experimental: as §1

Enterobacter cloacae = test: MIC on DMSal agar (Example 15); format: cell-based; details: 2 strains
Experimental: as §1

Enterococcus faecium = test: MIC on DMSal agar (Example 15); format: cell-based; details: 1 strain
Experimental: as §1

Escherichia coli = test: MIC on DMSal agar (Example 15); format: cell-based; details: 7 strains
Experimental: as §1

Escherichia hermanii = test: MIC on DMSal agar (Example 15); format: cell-based; details: 1 strain
Experimental: as §1

Group A Streptococcus = test: MIC on DMSal agar (Example 15); format: cell-based; details: 7 strains
Experimental: as §1

Group D Streptococcus = test: MIC on DMSal agar (Example 15); format: cell-based; details: 2 strains
Experimental: as §1

Group F Streptococcus = test: MIC on DMSal agar (Example 15); format: cell-based; details: 2 strains
Experimental: as §1

Hafnia alvei = test: MIC on DMSal agar (Example 15); format: cell-based; details: 1 strain
Experimental: as §1

Klebsiella aerogenes = test: MIC on DMSal agar (Example 15); format: cell-based; details: 1 strain
Experimental: as §1

Klebsiella pneumoniae = test: MIC on DMSal agar (Example 15); format: cell-based; details: 2 strains
Experimental: as §1

Listeria innocua = test: MIC on DMSal agar (Example 15); format: cell-based; details: 1 strain
Experimental: as §1

Listeria ivanovii = test: MIC on DMSal agar (Example 15); format: cell-based; details: 1 strain
Experimental: as §1

Proteus mirabilis = test: MIC on DMSal agar (Example 15); format: cell-based; details: 1 strain
Experimental: as §1

Proteus vulgaris = test: MIC on DMSal agar (Example 15); format: cell-based; details: 1 strain
Experimental: as §1

Serratia marcescans = test: MIC on DMSal agar (Example 15); format: cell-based; details: 1 strain
Experimental: as §1

Shigella = test: MIC on DMSal agar (Example 15); format: cell-based; details: 3 strains
Experimental: as §1

Staphylococcus aureus = test: MIC on DMSal agar (Example 15); format: cell-based; details: 14 strains
Experimental: as §1

[1] = test system: Staphylococcus epidermidis; test: MIC on DMSal agar (Example 15); format: cell-based; details: 3 strains
Experimental: as §1

[2] = test system: Staphylococcus haemolyticus; test: MIC on DMSal agar (Example 15); format: cell-based; details: 1 strain
Experimental: as §1

[3] = test system: Staphylococcus saprophyticus; test: MIC on DMSal agar (Example 15); format: cell-based; details: 1 strain
Experimental: as §1

Streptoccocus viridans = test: MIC on DMSal agar (Example 15); format: cell-based; details: 1 strain
Experimental: as §1

Streptococcus agalactiae = test: MIC on DMSal agar (Example 15); format: cell-based; details: 5 strains
Experimental: as §1

Haemophilus influenzae = test: MIC on DMSal agar (Example 15); format: cell-based; details: 5 strains
Salmonella = details: 16 strains, DMSal agar
Experimental: (§2) The experiments were conducted as follows: nutrient agar medium was autoclaved and, on cooling (but prior to setting) filter-sterilised alaphosphin or AEP were incorporated at final concentrations of 1 mM, 2 mM, 5 mM and 10 mM, and the medium used to pour plates. Control plates were prepared using nutrient agar without alaphosphin or AEP. A single colony of the organism under test was inoculated in 10 ml of nutrient broth and incubated (without agitation) at 37° C. for 4 hours.

Yersinia enterocolitica = test: MIC on DMSal agar (Example 15); format: cell-based; details: 2 strains
Streptococcus pneumonaie = test: MIC on DMSal agar (Example 15); format: cell-based; details: 5 strains
E. coli strains = test: inhibition of E. coli strains on DMSal agar for selective growth of Salmonella (Example 16); format: cell-based, Escherichia coli; details: added to DMSal, selective growth of Salmonella strains
Experimental: as §2
(§3) Trp-AEP was compared to alaphosphin (Ala-AEP) for selective growth of Salmonella strains on DMSal agar.

[4] = test system: Cronobacterr sakazakii 1888; test: MIC / growth in DMSal (Example 16); format: cell-based, Cronobacter sakazakii; details: Cronobacterr sakazakii 1888, DMSal
Experimental: as §2, §3

Citrobacter freundii 370 = test: MIC / growth in DMSal (Example 16); format: cell-based; details: Citrobacter freundii 370, DMSal
Experimental: as §2, §3

Escherichia coli 122 = test: MIC / growth in DMSal (Example 16); format: cell-based; details: Escherichia coli 122, DMSal
Experimental: as §2, §3

Escherichia coli 199 = test: MIC / growth in DMSal (Example 16); format: cell-based; details: Escherichia coli 199, DMSal
Experimental: as §2, §3

Escherichia coli 481 = test: MIC / growth in DMSal (Example 16); format: cell-based; details: Escherichia coli 481, DMSal
Experimental: as §2, §3

Klebsiella aerogenes 323 = test: MIC / growth in DMSal (Example 16); format: cell-based; details: Klebsiella aerogenes 323, DMSal
Experimental: as §2, §3

[5] = test system: Klebsiella pneumoniae 411; test: MIC / growth in DMSal (Example 16); format: cell-based; details: Klebsiella pneumoniae 411, DMSal
Experimental: as §2, §3

[6] = test system: Klebsiella pneumoniae 758; test: MIC / growth in DMSal (Example 16); format: cell-based; details: Klebsiella pneumoniae 758, DMSal
Experimental: as §2, §3

Salmonella arizonae 1200 = test: MIC / growth in DMSal (Example 16); format: cell-based; details: Salmonella arizonae 1200, DMSal
Experimental: as §2, §3

[7] = test system: Salmonella enteriditis 723; test: MIC / growth in DMSal (Example 16); format: cell-based; details: Salmonella enteriditis 723, DMSal
Experimental: as §2, §3

[8] = test system: Salmonella typhimurium 722; test: MIC / growth in DMSal (Example 16); format: cell-based; details: Salmonella typhimurium 722, DMSal
Experimental: as §2, §3

Salmonella virchow 703 = test: MIC / growth in DMSal (Example 16); format: cell-based; details: Salmonella virchow 703, DMSal
Experimental: as §2, §3

Serratia marcescens 217 = test: MIC / growth in DMSal (Example 16); format: cell-based; details: Serratia marcescens 217, DMSal
Experimental: as §2, §3

## CC(NC(=O)C(N)Cc1c[nH]c2ccccc12)P(=O)(O)O (stereo not shown) [Trp-AEP, tryptophan-AEP]
Burkholderia cepacia
  MIC: >256 µg/mL
Acinetobacter baumanii
  MIC: >256 µg/mL
Aeromonas hydrophilia
  MIC: 128 µg/mL (≈ 411 µM)
Campylobacter coli
  MIC: >128 µg/mL
Campylobacter jejuni
  MIC: >128 µg/mL
Citrobacter freundii
  MIC: approximately 1 μg/ml
Citrobacter freundii; listed as tryptophan-AEP
  MIC: 1 to 4 µg/mL
Cronobacter sakazakii
  MIC: approximately 1 μg/ml
Cronobacter sakazakii; listed as tryptophan-AEP
  MIC: 1 µg/mL (≈ 3.21 µM)
Enterobacter aerogenes
  MIC: 1 µg/mL (≈ 3.21 µM)
Enterobacter cloacae
  MIC: 4 µg/mL (≈ 12.9 µM)
Enterococcus faecium
  MIC: >256 µg/mL
Escherichia coli
  MIC: ≤ 0.5 µg/mL
Escherichia coli; listed as tryptophan-AEP
  MIC: 0.25 to 0.5 µg/mL
Escherichia hermanii
  MIC: 0.5 µg/mL (≈ 1.61 µM)
Group A Streptococcus
  MIC: >256 µg/mL
Group D Streptococcus
  MIC: 16 µg/mL (≈ 51.4 µM)
Group F Streptococcus
  MIC: >256 µg/mL
Hafnia alvei
  MIC: approximately 1 μg/ml
Hafnia alvei; listed as tryptophan-AEP
  MIC: 1 µg/mL (≈ 3.21 µM)
Klebsiella aerogenes
  MIC: 8 µg/mL (≈ 25.7 µM)
Klebsiella pneumoniae
  MIC: 2 to 4 µg/mL
Listeria innocua
  MIC: 32 µg/mL (≈ 103 µM)
Listeria ivanovii
  MIC: >128 µg/mL
Proteus mirabilis
  MIC: >128 µg/mL
Proteus vulgaris
  MIC: >128 µg/mL
Serratia marcescans
  MIC: 2 µg/mL (≈ 6.43 µM)
Shigella
  MIC: ≤ 0.5 µg/mL
Staphylococcus aureus
  MIC: 0.5 to 16 µg/mL
[1]
  MIC: 4 to 16 µg/mL
[2]
  MIC: 2 µg/mL (≈ 6.43 µM)
[3]
  MIC: 64 µg/mL (≈ 206 µM)
Streptoccocus viridans
  MIC: >256 µg/mL
Streptococcus agalactiae
  MIC: 128 µg/mL (≈ 411 µM)
Haemophilus influenzae
  MIC: >128 µg/mL
Salmonella
  MIC: 2 to 16 µg/mL
Yersinia enterocolitica
  MIC: 4 to 8 µg/mL
Streptococcus pneumonaie
  MIC: >256 µg/mL
E. coli strains
  concentration producing equivalent results to Ala-AEP at 1.5 μg/ml: 0.25 µg/mL
[4]
  MIC of Trp-AEP: 0.125 µg/mL
Citrobacter freundii 370
  MIC of Trp-AEP: 2 µg/mL
Escherichia coli 122
  MIC of Trp-AEP: 0.25 µg/mL
Escherichia coli 199
  MIC of Trp-AEP: 0.25 µg/mL
Escherichia coli 481
  MIC of Trp-AEP: 0.064 µg/mL
Klebsiella aerogenes 323
  MIC of Trp-AEP: 3 µg/mL
[5]
  MIC of Trp-AEP: 2 µg/mL
[6]
  MIC of Trp-AEP: 0.064 µg/mL
Salmonella arizonae 1200
  MIC of Trp-AEP: 2 µg/mL
[7]
  MIC of Trp-AEP: 3 µg/mL
[8]
  MIC of Trp-AEP: 3 µg/mL
Salmonella virchow 703
  MIC of Trp-AEP: 3 µg/mL
Serratia marcescens 217
  MIC of Trp-AEP: 3 µg/mL
